# Patent US6440903B1, “Substituted 2,4-diamino-1,3,5-triazines as herbicides” (Bayer Aktiengesellschaft, priority 1996, dated 2002)
# What was measured:
# Assay type in all cases: in vivo
# Chenopodium = assay: Post-emergence test; details: greenhouse, scored after three weeks; for pest or weed control at 250 g/ha / pest or weed control at 1000 g/ha / pest or weed control at 500 g/ha: Chenopodium, 504 h, read-out: % damage, Chenopodium; for pest or weed control at 1000 g/ha: 1000 g of ai./ha
# Procedure: (§1) Post-emergence Test Solvent: 5 parts by weight of acetone Emulsifier: 1 part by weight of alkylaryl polyglycol ether To produce a suitable preparation of active compound, 1 part by weight of active compound is mixed with the stated amount of solvent, the stated amount of emulsifier is added and the concentrate is diluted with water to the desired concentration. Test plants which have a height of 5-15 cm are sprayed with the preparation of active compound such that the particular amounts of active compounds desired are applied per unit area. The concentration of the spray liquor is chosen so that the particular amounts of active compound desired are applied in 1000 l of water/ha. After three weeks, the degree of damage to the plants is scored visually in % damage in comparison to the untreated control. The Figures Denote: 0%=no effect (like untreated control) 100%=total destruction
# Polygonum = assay: Post-emergence test; details: greenhouse, scored after three weeks; for pest or weed control at 250 g/ha / pest or weed control at 1000 g/ha / pest or weed control at 500 g/ha: Polygonum, 504 h, read-out: % damage, Polygonum; for pest or weed control at 1000 g/ha: 1000 g of ai./ha
# Procedure: as §1
# Wheat = assay: Post-emergence test; details: greenhouse, scored after three weeks; for plant injury at 1000 g/ha: 1000 g of ai./ha
# Procedure: as §1
# Setaria = assay: Post-emergence test; details: greenhouse, scored after three weeks; for pest or weed control at 250 g/ha: 250 g of ai./ha
# Procedure: as §1
# Viola = assay: Post-emergence test; details: greenhouse, scored after three weeks; for pest or weed control at 250 g/ha / pest or weed control at 1000 g/ha / pest or weed control at 500 g/ha: 504 h, read-out: % damage, Viola; for pest or weed control at 1000 g/ha: 1000 g of ai./ha
# Procedure: as §1
# Amaranthus = assay: Post-emergence test; details: greenhouse, scored after three weeks; for pest or weed control at 250 g/ha / pest or weed control at 1000 g/ha / pest or weed control at 500 g/ha: Amaranthus, 504 h, read-out: % damage, Amaranthus; for pest or weed control at 1000 g/ha: 1000 g of ai./ha
# Procedure: as §1
# weeds = assay: Post-emergence test (summary in text); details: result in words
# Procedure: Solvent: 5 parts by weight of acetone
# Emulsifier: 1 part by weight of alkylaryl polyglycol ether
# To produce a suitable preparation of active compound, 1 part by weight of active compound is mixed with the stated amount of solvent, the stated amount of emulsifier is added and the concentrate is diluted with water to the desired concentration.
# Test plants which have a height of 5-15 cm are sprayed with the preparation of active compound such that the particular amounts of active compounds desired are applied per unit area. The concentration of the spray liquor is chosen so that the particular amounts of active compound desired are applied in 1000 l of water/ha.
# After three weeks, the degree of damage to the plants is scored visually in % damage in comparison to the untreated control.
# 0%=no effect (like untreated control)
# [1] = Setaria, 504 h, read-out: % damage, Setaria
# [2] = Triticum aestivum, 504 h, read-out: % damage, Wheat
# [3] = Setaria, 504 h, 500 g of ai./ha, read-out: % damage, Setaria
smiles,measurement,setting,value
CCC(Nc1nc(N)nc(C(F)(F)F)n1)c1ccc(Cl)cc1 (stereo not drawn) [drawing 137],pest or weed control at 250 g/ha,Chenopodium; 250 g of ai./ha,100%
same,pest or weed control at 250 g/ha,Polygonum; 250 g of ai./ha,100%
same,"% damage, Wheat",Wheat; 250 g of ai./ha,0%
same,pest or weed control at 250 g/ha,Setaria; [1],95%
same,pest or weed control at 250 g/ha,Viola; 250 g of ai./ha,100%
same,pest or weed control at 250 g/ha,Amaranthus; 250 g of ai./ha,100%
CCC(Nc1nc(N)nc(C(F)(F)F)n1)c1ccc(Cl)cc1 (stereo not drawn) [drawing 139],pest or weed control at 1000 g/ha,Chenopodium,100%
same,pest or weed control at 1000 g/ha,Polygonum,100%
same,plant injury at 1000 g/ha,Wheat; [2],10%
same,pest or weed control at 1000 g/ha,Viola,100%
same,pest or weed control at 1000 g/ha,Amaranthus,100%
CCc1nc(N)nc(NC(C)c2ccc(Cl)cc2)n1 (stereo not drawn) [drawing 127],"% damage, Chenopodium",Chenopodium; 500 g of ai./ha,100%
same,"% damage, Polygonum",Polygonum; 500 g of ai./ha,100%
same,"% damage, Setaria",Setaria; 500 g of ai./ha,100%
same,"% damage, Viola",Viola; 500 g of ai./ha,100%
same,"% damage, Amaranthus",Amaranthus; 500 g of ai./ha,100%
CC(=O)Nc1nc(NC(C)c2ccc(Cl)cc2)nc(C(F)(F)F)n1 (stereo not drawn),pest or weed control at 500 g/ha,Chenopodium; 500 g of ai./ha,100%
same,pest or weed control at 500 g/ha,Polygonum; 500 g of ai./ha,100%
same,plant injury at 500 g/ha,"Wheat; Triticum aestivum, 504 h, 500 g of ai./ha, read-out: % damage, Wheat",10%
same,pest or weed control at 500 g/ha,Setaria; [3],95%
same,pest or weed control at 500 g/ha,Viola; 500 g of ai./ha,100%
same,pest or weed control at 500 g/ha,Amaranthus; 500 g of ai./ha,100%
CCc1nc(N)nc(NC(C)c2ccc(Cl)cc2)n1 (stereo not drawn) [Example 91],activity against weeds,weeds,strong activity
CC(Nc1nc(N)nc(C(C)(Cl)Cl)n1)c1ccc(Cl)cc1 (stereo not drawn) [Example 97],activity against weeds,weeds,strong activity
COCc1nc(N)nc(NC(C)c2ccc(Cl)cc2)n1 (stereo not drawn) [drawing 130],"% damage, Chenopodium",Chenopodium; 250 g of ai./ha,100%
same,"% damage, Polygonum",Polygonum; 250 g of ai./ha,100%
same,"% damage, Wheat",Wheat; 250 g of ai./ha,10%
same,"% damage, Viola",Viola; 250 g of ai./ha,100%
same,"% damage, Amaranthus",Amaranthus; 250 g of ai./ha,100%
COCc1nc(N)nc(NC(C)c2ccc(Cl)cc2)n1 (stereo not drawn) [Example 170],activity against weeds,weeds,strong activity
CC(Cl)c1nc(N)nc(NC(C)c2ccc(Cl)cc2)n1 (stereo not drawn) [Example 171],activity against weeds,weeds,strong activity
CCc1nc(N)nc(NC(C)c2ccc(Cl)cc2)n1 (stereo not drawn) [drawing 116],pest or weed control at 250 g/ha,Chenopodium; 250 g of ai./ha,100%
same,pest or weed control at 250 g/ha,Polygonum; 250 g of ai./ha,100%
same,plant injury at 250 g/ha,"Wheat; Triticum aestivum, 504 h, 250 g of ai./ha, read-out: % damage, Wheat",10%
same,pest or weed control at 250 g/ha,Setaria; [1],100%
same,pest or weed control at 250 g/ha,Viola; 250 g of ai./ha,100%
same,pest or weed control at 250 g/ha,Amaranthus; 250 g of ai./ha,100%
CSc1ccc(C(C)Nc2nc(N)nc(C(Cl)Cl)n2)cc1 (stereo not drawn) [drawing 113],pest or weed control at 1000 g/ha,Chenopodium,100%
same,pest or weed control at 1000 g/ha,Polygonum,80%
same,plant injury at 1000 g/ha,Wheat; [2],0%
same,pest or weed control at 1000 g/ha,"Setaria; Setaria, 504 h, 1000 g of ai./ha, read-out: % damage, Setaria",90%
same,pest or weed control at 1000 g/ha,Viola,100%
same,pest or weed control at 1000 g/ha,Amaranthus,100%
CCc1nc(N)nc(NC(C)c2ccc(Cl)cc2)n1 (stereo not drawn) [Example 166],activity against weeds,weeds,strong activity
CC(Nc1nc(N)nc(C(Cl)Cl)n1)c1ccc(Cl)cc1 (stereo not drawn) [Example 94],activity against weeds,weeds,strong activity
CCC(Nc1nc(N)nc(C(F)(F)F)n1)c1ccc(Cl)cc1 (stereo not drawn) [Example 87],activity against weeds,weeds,strong activity
CCc1nc(N)nc(NC(C)c2ccc(Cl)cc2)n1 (stereo not drawn) [drawing 123],pest or weed control at 500 g/ha,Chenopodium; 500 g of ai./ha,100%
same,pest or weed control at 500 g/ha,Polygonum; 500 g of ai./ha,100%
same,pest or weed control at 500 g/ha,Setaria; [3],95%
same,pest or weed control at 500 g/ha,Viola; 500 g of ai./ha,100%
same,pest or weed control at 500 g/ha,Amaranthus; 500 g of ai./ha,100%
COc1ccc(C(C)Nc2nc(N)nc(C(C)F)n2)cc1 (stereo not drawn) [Example 190],activity against weeds,weeds,strong activity
CC(Nc1nc(N)nc(Cl)n1)c1ccc(Cl)cc1 (stereo not drawn) [Example 4],activity against weeds,weeds,strong activity
CC(Nc1nc(N)nc(C(F)(F)F)n1)c1ccc(Cl)cc1 (stereo not drawn) [Example 21],activity against weeds,weeds,strong activity
